According to publication PMC7684578, “Isopedopeptins A–H: Cationic Cyclic Lipodepsipeptides from Pedobacter cryoconitis UP508 Targeting WHO Top-Priority Carbapenem-Resistant Bacteria” (ACS Chemical Biology, 2020):
In brackets after ≈: the same amount, converted by molar mass. Starred links: 1 amine or outer side, 2 acyl side, 3 side chain; linkers in the order of their positions; H or OH if unused. Positions of bridges follow the written chain, without caps; N, C: chain ends. Non-standard residues stand in square brackets, D forms with d. Residues, ends and D or L forms follow the SMILES beside them. X4 = CC(C)CCC=CCCC[C@H](CC(=O)[*:1])O[*:2]; X6 = CC(C)CCCCC=CC[C@H](CC(=O)[*:1])O[*:2]; X5 = CC(C)CCCCCCC[C@H](CC(=O)[*:1])O[*:2]; X3 = CC(C)CCCCC[C@H](CC(=O)[*:1])O[*:2]; X7 = CCCCCCC=CC[C@H](CC(=O)[*:1])O[*:2]; X2 = CCCCCCC[C@H](CC(=O)[*:1])O[*:2]; Val(3-OH) = CC(C)(O)[C@H](N)C(=O)O; X1 = C/C=C(/N[*:1])C(=O)[*:2]; Dab = NCC[C@H](N)C(=O)O; Dap = NC[C@H](N)C(=O)O

How the values were obtained:
P. aeruginosa LMG6395T = experiment: MIC, broth micro-dilution, primary panel; type: cell-based, Pseudomonas aeruginosa; conditions: WT; for MIC: Pseudomonas aeruginosa, LMG6395T
Method: (§1) Isopedopeptin E (5): off-white solid; [α] D20 –36° (c 0.3 in methanol); UV (MeOH) λ max (log10 ε) 240 (3.8); 1H NMR (DMSO-d 6, 600 MHz), see Table S5; 13C NMR (DMSO-d 6, 150 MHz), see Table […]
(§2) Isopedopeptin F (6): off-white solid; [α] D20 –32° (c 0.05 in methanol); UV (MeOH) λ max (log10 ε) 240 (3.8); 1H NMR (DMSO-d 6, 600 MHz), see Table S6; 13C NMR (DMSO-d 6, 150 MHz), see Table […]
(§3) Isopedopeptin G (7): off-white solid; [α] D20 –49° (c 0.1 in methanol); UV (MeOH) λ max (log10 ε) 240 (4.0); 1H NMR (DMSO-d 6, 600 MHz), see Table S7; 13C NMR (DMSO-d 6, 150 MHz), see Table […]
(§4) Isopedopeptin H (8): off-white solid; [α] D20 –56° (c 0.2 in methanol); UV (MeOH) λ max (log10 ε) 240 (4.0); 1H NMR (DMSO-d 6, 600 MHz), see Table S8; 13C NMR (DMSO-d 6, 150 MHz), see Table […]
(§5) Minimal Inhibitory Concentration (MIC) against the primary panel of microorganisms.
(§6) The MIC for compounds 1–8 was measured by means of a broth micro-dilution method in 96-wells microtiter plates with the addition of E. coli LMG15862, LMG1041 T, E. cloacaeA. baumannii […]
(§7) H-29 and A. fumigatus J7, as test organisms. The test media were AM3 Broth (BD Difco Ltd) mixed with phosphate buffered saline (PBS, Amresco LLC, Solon, USA) in 1:4 ratio (E. coli, A. baumannii, E. cloacae, K. pneumoniae and P. aeruginosa), AM3 Broth mixed with PBS in 1:1 ratio (S. aureus), ME (A. fumigatus) and ISP2 (C. albicans). Prior to MIC determination, the cell concentration of tested bacterial/fungal pathogens was adjusted to ≅ 4 × 10^5 CFU/mL (acceptable range 2 – 6 × 10^5 CFU/mL). Cell concentration was confirmed by colony counting after diluting and plating the respective bacterial pathogen on VPA plates [VPA, 10 g Vegetable Peptone Broth (Oxoid Ltd., Basingstoke,UK), 15 g Bacto Agar (Difco Ltd, Tyrone) in 1 L deionised water] directly after each of MIC-tests. The cells of C. albicans were plated on ISP2 agar plates [ISP2, 15 g Bacto Agar (Difco Ltd) in 1 L deionised water] and respectively spores of A. fumigatus were plated on MEA plates.
(§8) Plates were, subsequently, incubated at 37 °C in the dark, and viable colonies counted after 16 to 24 h.
(§9) To estimate MIC values (concentration range between 0.05 and 50 µg/mL), solutions of the tested compounds (100, 10 and 1 and if needed 0.1 µg/mL in MeOH) were dispensed into wells of microtiter plate(s) and the solvent was evaporated in a fume-hood. Subsequently, suspensions of pathogen cells in the appropriate medium were dispensed to the wells of microtiter plates and the growth of pathogens were observed after 16 to 20 h of incubation at 37 °C in the dark. Positive controls were the respective pathogen cells suspended in untreated sterile media without addition of compounds(s) and negative controls were the media only. MIC values were defined as the lowest concentration of each compound with no visible growth of pathogen. All MIC tests were performed in triplicate and […]
(§10) MIC determination for compound 2 against an extended panel of bacterial strains.
(§11) Compound 2 was evaluated against a panel of Gram-negative bacteria (Hughes strain collection), including: A. baumannii ATCC 19606, wild-type; BM4454, multidrug-resistant clinical isolate; BM4652, efflux-defective derivative of BM4454; CH9622, colistin-resistant clinical isolate; E. coli ATCC 25922, wild-type; CH3130, efflux-defective ΔtolC mutant isogenic to ATCC 25922; D22, a drug-hypersensitive lpxC mutant of E. coli; CH3491, multidrug-resistant clinical isolate; CH9623 and CH9624, colistin-resistant clinical isolates carrying mcr-1; K. pneumoniae ATCC 13833, wild-type; […]
(§12) clinical isolate; CH9625 and CH9626, colistin-resistant clinical isolates; P. aeruginosa PAO1, wild-type; PAO750, efflux-defective mutant isogenic to PAO1. The in vitro antimicrobial activity of each compound was determined by measuring the MIC value using the broth micro-dilution technique in cation-adjusted Mueller-Hinton II broth (Becton-Dickinson, 212322) according to EUCAST and CLSI guidelines. Each compound prepared in MHII medium was dispensed into a 96-well round- […]

K. pneumoniae LMG20218 = experiment: MIC, broth micro-dilution, primary panel; type: cell-based, Klebsiella pneumoniae; conditions: for MIC K. pneumoniae LMG20218: ESBL; for MIC: Klebsiella pneumoniae, LMG20218, ESBL
Method: as §1, §2, §3, §4, §5, §6, §7, §8, §9, §10, §11, §12

Row | Structure (SMILES) | MIC (P. aeruginosa LMG6395T) | MIC P. aeruginosa LMG6395T (P. aeruginosa LMG6395T) | MIC K. pneumoniae LMG20218 (K. pneumoniae LMG20218) | MIC (K. pneumoniae LMG20218)
1 | C/C=C1/NC(=O)[C@H](CCN)NC(=O)[C@H](CC(C)C)NC(=O)[C@H](CN)NC(=O)C[C@@H](CCCCCC(C)C)OC(=O)[C@H](CC(=O)O)NC(=O)[C@H](C(C)(C)O)NC(=O)[C@@H](Cc2ccccc2)NC(=O)[C@H](CN)NC(=O)[C@H]([C@@H](C)O)NC1=O [Compound 1, cyclo(3-hydroxy-9-methyldecanoyl-DAPA1-Leu-DABA-ABA-Thr-DAPA2-Phe-OHVal-Asp)] ([Dap]L[Dab][X1]T[Dap][dF][Val(3-OH)]D; linker N-C via X3) | 8 to 16 µg/mL (≈ 7.07 to 14.1 µM) | 16 µg/mL (≈ 14.1 µM) | 8 µg/mL (≈ 7.07 µM) | 8 to 16 µg/mL (≈ 7.07 to 14.1 µM)
2 | C/C=C1/NC(=O)[C@H](CCN)NC(=O)[C@H](CC(C)C)NC(=O)[C@H](CN)NC(=O)C[C@@H](CCCCCCC)OC(=O)[C@H](CC(=O)O)NC(=O)[C@H](C(C)(C)O)NC(=O)[C@@H](Cc2ccccc2)NC(=O)[C@H](CN)NC(=O)[C@H]([C@@H](C)O)NC1=O [Compound 2, isopedopeptin B] ([Dap]L[Dab][X1]T[Dap][dF][Val(3-OH)]D; linker N-C via X2) | 8 to 16 µg/mL (≈ 7.16 to 14.3 µM) | 16 µg/mL (≈ 14.3 µM) | 16 µg/mL (≈ 14.3 µM) | 8 to 16 µg/mL (≈ 7.16 to 14.3 µM)
3 | C/C=C1/NC(=O)[C@H](CCN)NC(=O)[C@H](CC(C)C)NC(=O)[C@H](CN)NC(=O)C[C@@H](CC=CCCCCCC)OC(=O)[C@H](CC(=O)O)NC(=O)[C@H](C(C)(C)O)NC(=O)[C@@H](Cc2ccccc2)NC(=O)[C@H](CN)NC(=O)[C@H]([C@@H](C)O)NC1=O [Compound 3, isopedopeptin C] ([Dap]L[Dab][X1]T[Dap][dF][Val(3-OH)]D; linker N-C via X7) | 32 µg/mL (≈ 28 µM) | – | – | 32 µg/mL (≈ 28 µM)
4 | C/C=C1/NC(=O)[C@H](CCN)NC(=O)[C@H](CC(C)C)NC(=O)[C@H](CN)NC(=O)C[C@@H](CCCCCCC)OC(=O)[C@H](CC(=O)O)NC(=O)[C@H](C(C)C)NC(=O)[C@@H](Cc2ccccc2)NC(=O)[C@H](CN)NC(=O)[C@H]([C@@H](C)O)NC1=O [Compound 4, isopedopeptin D] ([Dap]L[Dab][X1]T[Dap][dF]VD; linker N-C via X2) | > 32 µg/mL | – | – | > 32 µg/mL
5 | C/C=C1/NC(=O)[C@H](CCN)NC(=O)[C@H](CC(C)C)NC(=O)[C@H](CN)NC(=O)C[C@@H](CCCCCC(C)C)OC(=O)[C@H](CC(=O)O)NC(=O)[C@H](C(C)C)NC(=O)[C@@H](Cc2ccccc2)NC(=O)[C@H](CN)NC(=O)[C@H]([C@@H](C)O)NC1=O [Compound 5, Isopedopeptin E] ([Dap]L[Dab][X1]T[Dap][dF]VD; linker N-C via X3) | 32 µg/mL (≈ 28.7 µM) | – | – | 32 µg/mL (≈ 28.7 µM)
6 | C/C=C1/NC(=O)[C@H](CCN)NC(=O)[C@H](CC(C)C)NC(=O)[C@H](CN)NC(=O)C[C@@H](CCCCCCCC(C)C)OC(=O)[C@H](CC(=O)O)NC(=O)[C@H](C(C)(C)O)NC(=O)[C@@H](Cc2ccccc2)NC(=O)[C@H](CN)NC(=O)[C@H]([C@@H](C)O)NC1=O [Compound 6, Isopedopeptin F] ([Dap]L[Dab][X1]T[Dap][dF][Val(3-OH)]D; linker N-C via X5) | 32 µg/mL (≈ 27.6 µM) | – | – | 32 µg/mL (≈ 27.6 µM)
7 | C/C=C1/NC(=O)[C@H](CCN)NC(=O)[C@H](CC(C)C)NC(=O)[C@H](CN)NC(=O)C[C@@H](CCCC=CCCC(C)C)OC(=O)[C@H](CC(=O)O)NC(=O)[C@H](C(C)C)NC(=O)[C@@H](Cc2ccccc2)NC(=O)[C@H](CN)NC(=O)[C@H]([C@@H](C)O)NC1=O [Compound 7, Isopedopeptin G] ([Dap]L[Dab][X1]T[Dap][dF]VD; linker N-C via X4) | 8 to 16 µg/mL (≈ 7.01 to 14 µM) | 8 µg/mL (≈ 7.01 µM) | 16 µg/mL (≈ 14 µM) | 8 to 16 µg/mL (≈ 7.01 to 14 µM)
8 | C/C=C1/NC(=O)[C@H](CCN)NC(=O)[C@H](CC(C)C)NC(=O)[C@H](CN)NC(=O)C[C@@H](CC=CCCCCC(C)C)OC(=O)[C@H](CC(=O)O)NC(=O)[C@H](C(C)C)NC(=O)[C@@H](Cc2ccccc2)NC(=O)[C@H](CN)NC(=O)[C@H]([C@@H](C)O)NC1=O [Compound 8, Isopedopeptin H] ([Dap]L[Dab][X1]T[Dap][dF]VD; linker N-C via X6) | 16 µg/mL (≈ 14 µM) | – | – | 16 µg/mL (≈ 14 µM)
